Measured values from patent publication US20230117034A1, “PYRAZOLOTRIAZINES” (Bayer Aktiengesellschaft, priority 2019, published 2023).
Read-outs that look alike come from different tables or passages of the source.

Experiments:
[1] = system: MDA-MB-231, human breast cancer cells; assay: Proliferation assay MDA-MB-231 (crystal violet, 4 days); assay type: cell-based; settings: MDA-MB-231 cells, median, read-out: Prolif-MDA MB-231, IC50-[mol/l] (median)
Outline: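 Cells seeded at 4,000/well in medium with 10% FCS; after 24 h, compounds added at 0.01-10 µmol/L (0.1% DMSO) for 4 days. Glutaraldehyde-fixed, crystal violet-stained, absorbance at 595 nm normalized to zero-point plate (0%) and untreated cells (100%); IC50 by 4-parameter fit.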

CDK12/CycK = CDK12/CycK (Homo sapiens, UniProt Q9NYV4); assay: CDK12/CycK high ATP kinase assay (TR-FRET, 2 mM ATP); assay type: biochemical; settings: 2 mM ATP (high ATP); median; read-out: CDK12/CyclinK, 2 mM ATP (high ATP), IC50-[mol/l] (median)
Sequence of CDK12/CycK (Q9NYV4 with tags, fused parts or gaps): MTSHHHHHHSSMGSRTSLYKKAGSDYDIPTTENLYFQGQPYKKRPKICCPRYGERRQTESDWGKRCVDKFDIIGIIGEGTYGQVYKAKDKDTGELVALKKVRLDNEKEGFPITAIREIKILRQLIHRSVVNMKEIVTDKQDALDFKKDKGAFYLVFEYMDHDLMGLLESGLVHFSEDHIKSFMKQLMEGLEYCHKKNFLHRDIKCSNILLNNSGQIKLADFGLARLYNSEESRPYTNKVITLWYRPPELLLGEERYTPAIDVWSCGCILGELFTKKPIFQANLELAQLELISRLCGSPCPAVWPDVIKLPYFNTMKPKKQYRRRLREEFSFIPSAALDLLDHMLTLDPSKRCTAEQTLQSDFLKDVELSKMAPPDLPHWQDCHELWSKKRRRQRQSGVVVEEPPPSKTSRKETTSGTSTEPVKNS
Sequence of CDK12/CycK (O75909 1-300 partner limits assumed): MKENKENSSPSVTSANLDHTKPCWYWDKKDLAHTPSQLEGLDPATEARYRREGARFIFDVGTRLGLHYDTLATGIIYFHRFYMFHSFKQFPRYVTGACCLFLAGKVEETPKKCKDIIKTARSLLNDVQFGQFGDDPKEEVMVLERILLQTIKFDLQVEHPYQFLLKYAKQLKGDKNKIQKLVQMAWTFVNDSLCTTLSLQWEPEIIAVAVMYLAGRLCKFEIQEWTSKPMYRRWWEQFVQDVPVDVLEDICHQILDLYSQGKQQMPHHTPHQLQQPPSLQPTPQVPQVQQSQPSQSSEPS
Outline: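 His-tagged human CDK12/CycK (~0.75 nM) pre-incubated 15 min with compound, then 60 min at 22 °C with 2 mM ATP and 1 µM biotinylated peptide (HEPES pH 7.5, 20 mM MgCl2). EDTA stop; phospho-Ser62 antibody/Eu anti-rabbit and streptavidin-XL665 TR-FRET, 665/620 nm ratio normalised to give IC50.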

[2] = system: BRCA1 mRNA expression in MDA-MB-231 cells; assay: qRT-PCR assay: BRCA1 mRNA expression in MDA-MB-231; assay type: cell-based, human; settings: median, read-out: RTqPCR-MDA-MB-231, IC50, BRCA1 (median)
Outline: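 Cells were seeded at 200,000 cells/well, left 24 h, then exposed continuously to test substances for 24 h. Total RNA (600 ng) was reverse-transcribed to cDNA and amplified by qPCR, and transcript levels were normalised to GAPDH housekeeping expression.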

[3] = Homo sapiens, MDA-MB-231, Inhibition of BRCA1 mRNA expression in MDA-MB-231 cells

| IC50 ([1]; Homo sapiens, MDA-MB-231, 96 h) | IC50 (CDK12/CycK) | IC50 [2, 3] | Structure (SMILES) | IC50 [1] | IC50 ([2]; Inhibition of BRCA1 mRNA expression in MDA-MB-231 cells) |
| --- | --- | --- | --- | --- | --- |
| 74.5 nM | 3320 nM | 13.3 nM | Cc1ccnc2[nH]c(CNc3nc(N4CCOCC4)nc4c(C(C)C)cnn34)nc12 [Example 28, N-[(7-methyl-3H-imidazo[4,5-b]pyridin-2-yl)methyl]-2-(morpholin-4-yl)-8-(propan-2-yl)pyrazolo[1,5-a][1,3,5]triazin-4-amine] |  |  |
| 4.36 nM | 618 nM | 8.16 nM | Cc1cc2nc(CNc3nc(N4CCOCC4)nc4c(Br)cnn34)[nH]c2cc1C [Example 340, 8-bromo-N-[(5,6-dimethyl-1H-benzimidazol-2-yl)methyl]-2-(morpholin-4-yl)pyrazolo[1,5-a][1,3,5]triazin-4-amine] |  |  |
| 93.9 nM | 9350 nM | 61.6 nM | Brc1cnn2c(NCc3nc4ccccc4[nH]3)nc(N3CC4CCC(C3)O4)nc12 [Example 351, N-[(1H-benzimidazol-2-yl)methyl]-8-bromo-2-(8-oxa-3-azabicyclo[3.2.1]octan-3-yl)pyrazolo[1,5-a][1,3,5]triazin-4-amine] |  |  |
| 15.2 nM | 2090 nM | 3.28 nM | CN(CC(C)(C)O)c1nc(NCc2nc3c(F)c(F)ccc3[nH]2)n2ncc(Cl)c2n1 [Example 359, 1-[(8-chloro-4-{[(4,5-difluoro-1H-benzimidazol-2-yl)methyl]amino}pyrazolo[1,5-a][1,3,5]triazin-2-yl)(methyl)amino]-2-methylpropan-2-ol] |  |  |
| 8.76 nM | 2850 nM | 16.9 nM | CN(CC(C)(C)O)c1nc(NCc2nc3cc(C(F)(F)F)ccc3[nH]2)n2ncc(C3CC3)c2n1 [Example 323, 1-{[8-cyclopropyl-4-({[5-(trifluoromethyl)-1H-benzimidazol-2-yl]methyl}amino)pyrazolo[1,5-a][1,3,5]triazin-2-yl](methyl)amino}-2-methylpropan-2-ol] |  |  |
| 11.8 nM | 190 nM | 3.78 nM | FC(F)(F)c1cnn2c(NCc3nc4cc(Cl)c(Cl)cc4[nH]3)nc(N3CCOCC3)nc12 [Example 332, N-[(5,6-dichloro-1H-benzimidazol-2-yl)methyl]-2-(morpholin-4-yl)-8-(trifluoromethyl)pyrazolo[1,5-a][1,3,5]triazin-4-amine] |  |  |
| 20.2 nM | 115 nM | 9.16 nM | Fc1cc(F)cc(-c2nnc(CNc3nc(N4CCOCC4)nc4c(C(F)(F)F)cnn34)[nH]2)c1 [Example 386, N-{[5-(3,5-difluorophenyl)-4H-1,2,4-triazol-3-yl]methyl}-2-(morpholin-4-yl)-8-(trifluoromethyl)pyrazolo[1,5-a][1,3,5]triazin-4-amine] |  |  |
| 7.45 nM | 1550 nM | 7.85 nM | FC(F)(F)c1ccc2[nH]c(CNc3nc(N4CCOCC4)nc4c(Br)cnn34)nc2c1 [Example 339, 8-bromo-2-(morpholin-4-yl)-N-{[5-(trifluoromethyl)-1H-benzimidazol-2-yl]methyl}pyrazolo[1,5-a][1,3,5]triazin-4-amine] |  |  |
| 18.8 nM | 5250 nM | 4.93 nM | Brc1cnn2c(NCc3nc4ccccc4[nH]3)nc(N3CC4CCC3CO4)nc12 (stereo not drawn) [Example 352, N-[(1H-benzimidazol-2-yl)methyl]-8-bromo-2-(2-oxa-5-azabicyclo[2.2.2]octan-5-yl)pyrazolo[1,5-a][1,3,5]triazin-4-amine] |  |  |
| 4.35 nM | 2180 nM | 2.04 nM | CN(CC(C)(C)O)c1nc(NCc2nc3cc(F)c(F)cc3[nH]2)n2ncc(Br)c2n1 [Example 347] |  |  |
| 2.45 nM | 416 nM | 1.3 nM | Cc1cc2nc(CNc3nc(N(C)CC(C)(C)O)nc4c(C5CC5)cnn34)[nH]c2cc1C [Example 321, 1-[(8-cyclopropyl-4-{[(5,6-dimethyl-1H-benzimidazol-2-yl)methyl]amino}pyrazolo[1,5-a][1,3,5]triazin-2-yl)(methyl)amino]-2-methylpropan-2-ol] |  |  |
| 41.3 nM | 6670 nM | 9.75 nM | CN(c1nc(NCc2nc3ccccc3[nH]2)n2ncc(Br)c2n1)[C@H]1C[C@@H](O)C1 [Example 364, cis-3-[(4-{[(1H-benzimidazol-2-yl)methyl]amino}-8-bromopyrazolo[1,5-a][1,3,5]triazin-2-yl)(methyl)amino]cyclobutan-1-ol] |  |  |
| 43.8 nM | 280 nM | 31.6 nM | Fc1cccc(-c2nnc(CNc3nc(N4CCOCC4)nc4c(C(F)(F)F)cnn34)[nH]2)c1 [Example 385, N-{[5-(3-fluorophenyl)-4H-1,2,4-triazol-3-yl]methyl}-2-(morpholin-4-yl)-8-(trifluoromethyl)pyrazolo[1,5-a][1,3,5]triazin-4-amine] |  |  |
| 23.2 nM | 1430 nM | 9.02 nM | Fc1cccc2[nH]c(CNc3nc(N4CCOCC4)nc4c(Cl)cnn34)nc12 [Example 361, 8-chloro-N-[(4-fluoro-1H-benzimidazol-2-yl)methyl]-2-(morpholin-4-yl)pyrazolo[1,5-a][1,3,5]triazin-4-amine] |  |  |
| 30.2 nM | 6840 nM | 40 nM | C[C@H]1CN(C)CCN1c1nc(NCc2nc3c(F)cccc3[nH]2)n2ncc(C(F)(F)F)c2n1 [Example 388, 2-[(2S)-2,4-dimethylpiperazin-1-yl]-N-[(4-fluoro-1H-benzimidazol-2-yl)methyl]-8-(trifluoromethyl)pyrazolo[1,5-a][1,3,5]triazin-4-amine] |  |  |
| 4.67 nM | 12200 nM | 3.02 nM | CN1CCN(c2nc(NCc3nc4cc(F)c(F)cc4[nH]3)n3ncc(Br)c3n2)CC1 [Example 346, 8-bromo-N-[(5,6-difluoro-1H-benzimidazol-2-yl)methyl]-2-(4-methylpiperazin-1-yl)pyrazolo[1,5-a][1,3,5]triazin-4-amine] |  |  |
| 3.1 nM | 1180 nM | 1.3 nM | CN(CC(C)(C)O)c1nc(NCc2nc3cc(F)c(Cl)cc3[nH]2)n2ncc(Br)c2n1 [Example 338, 1-[(8-bromo-4-{[(6-chloro-5-fluoro-1H-benzimidazol-2-yl)methyl]amino}pyrazolo[1,5-a][1,3,5]triazin-2-yl)(methyl)amino]-2-methylpropan-2-ol] |  |  |
| 1.97 nM | 6650 nM | 1.27 nM | Cc1cc2nc(CNc3nc(N4CCN(C)CC4)nc4c(Br)cnn34)[nH]c2cc1C [Example 342, 8-bromo-N-[(5,6-dimethyl-1H-benzimidazol-2-yl)methyl]-2-(4-methylpiperazin-1-yl)pyrazolo[1,5-a][1,3,5]triazin-4-amine] |  |  |
| 89.9 nM | 3670 nM | 21.2 nM | Fc1ccc(-c2nnc(CNc3nc(N4CCOCC4)nc4c(Br)cnn34)[nH]2)cc1 [Example 29, 8-bromo-N-{[5-(4-fluorophenyl)-4H-1,2,4-triazol-3-yl]methyl}-2-(morpholin-4-yl)pyrazolo[1,5-a][1,3,5]triazin-4-amine] |  |  |

| Structure (SMILES) | IC50 ([1]; Homo sapiens, MDA-MB-231, 96 h) | IC50 (CDK12/CycK) | IC50 [2, 3] | IC50 [1] | IC50 ([2]; Inhibition of BRCA1 mRNA expression in MDA-MB-231 cells) |
| --- | --- | --- | --- | --- | --- |
| Brc1cnn2c(NCc3nc4ccccc4[nH]3)nc(N3C[C@H]4CC[C@@H]3CN4)nc12 (single isomer, unassigned) [Example 335, N-[(1H-benzimidazol-2-yl)methyl]-8-bromo-2-{[1R or S-(1R*,4R*)]-2,5-diazabicyclo[2.2.2]octan-2-yl}pyrazolo[1,5-a][1,3,5]triazin-4-amine] |  | 6650 nM |  | 10.5 nM | 12.7 nM |
| Cc1cc2nc(CNc3nc(N4CC5CCC(C4)N5)nc4c(Br)cnn34)[nH]c2cc1C [Example 353, 8-bromo-2-(3,8-diazabicyclo[3.2.1]octan-3-yl)-N-[(5,6-dimethyl-1H-benzimidazol-2-yl)methyl]pyrazolo[1,5-a][1,3,5]triazin-4-amine] | 1.81 nM | 2520 nM | 2.39 nM |  |  |
| Fc1c(Cl)ccc2[nH]c(CNc3nc(N4CC5CCC(C4)N5)nc4c(Br)cnn34)nc12 [Example 380, 8-bromo-N-[(5-chloro-4-fluoro-1H-benzimidazol-2-yl)methyl]-2-(3,8-diazabicyclo[3.2.1]octan-3-yl)pyrazolo[1,5-a][1,3,5]triazin-4-amine] | 2.19 nM | 1020 nM | 1 nM |  |  |
| Fc1cc2nc(CNc3nc(N4CC5CCC(C4)N5)nc4c(Br)cnn34)[nH]c2cc1F [Example 355, 8-bromo-2-(3,8-diazabicyclo[3.2.1]octan-3-yl)-N-[(5,6-difluoro-1H-benzimidazol-2-yl)methyl]pyrazolo[1,5-a][1,3,5]triazin-4-amine] | 3.2 nM | 4180 nM | 1.41 nM |  |  |
| CN1C2CCC1CN(c1nc(NCc3nc4c(F)c(F)ccc4[nH]3)n3ncc(C(F)(F)F)c3n1)C2 [Example 356, N-[(4,5-difluoro-1H-benzimidazol-2-yl)methyl]-2-(8-methyl-3,8-diazabicyclo[3.2.1]octan-3-yl)-8-(trifluoromethyl)pyrazolo[1,5-a][1,3,5]triazin-4-amine] | 5.25 nM | 4910 nM | 5.05 nM |  |  |
